Experimental data reported in patent US8785457B2 (Cellzome Limited, priority 2009, dated 2014).

How the values were obtained:
[1] = tested on: Akt serine-473 phosphorylation; experiment: In vitro Phospho-Akt cellular assay (pAkt S473) in HEK293T/17 cells; assay type: cell-based; conditions: Homo sapiens, 2 hours
From the text: Activation of mTOR signaling results in phosphorylation of several downstream targets. In cells, mTOR exists in two different protein complexes. The mTOR Complex-1 (mTORC1) phosphorylates and activates S6 Kinase 1 (S6K1) and S6 Kinase 2 (S6K2) (also known as p70S6K) which then phosphorylate S6 Ribosomal Protein (S6RP) (also known as RPS6)3. S6RP is phosphorylated on serine 235, serine 236, serine 240 and serine 244 by both pS6K1 and pS6K2. The mTOR Complex-2 (mTORC2) phosphorylates AKT on serine 473 which activates the AKT signaling pathway.
The assay measures a test compound's inhibition of S6RP serine-240/244 phosphorylation and inhibition of Akt serine-473 phosphorylation in human embryonic kidney derived HEK293T/17 cells (ATCC CRL-11268).
The HEK293T/17 cell line is maintained in DMEM media (Invitrogen catalogue number 41965-039) supplemented with 10% FCS at 37° C. in a 5% CO2 humidified incubator.
Cells are seeded in 96-well plates at 40,000 cells/well (pS6RP S240/244 assay) or 80,000 cells/well (pAkt S473 assay) in 90 μl growth media (DMEM, 2% FCS). Plates are incubated for 1 hour in a humidified incubator to allow the cells to adhere. Cells are treated with 8 concentrations of test compounds or DMSO alone for controls (final DMSO concentration 0.1%) and incubated at 37° C. for 2 hours. Then 20 μl of 5× concentrated lysis buffer (750 mM NaCl, 100 mM Tris pH7.4, 5 mM ADTA, 5 mM EGTA, 5% Triton X-100) is added, plates are sealed and incubated for 15 minutes at 4° C. with gentle shaking. After cell lysis, 25 μl cell lysate is transferred to a MesoScale plate coated with an antibody to pS6RP Ser240/244 (MesoScale Discovery K150DGD-3) or an antibody to pAkt Ser 473 (MesoScale Discovery K151DGD-3). Plates have been blocked before by incubation with 150 μl MesoScale Discovery Blocking Solution-A for 1 hour at room temperature followed by washing with 150 μl 1× Tris wash buffer per well. After the transfer of the cell lysate to the MSD plate, the pS6RP (or pAkt) protein is captured on the coated antibody by incubation at room temperature for 1 hour with gentle shaking. After the capture step the plate is washed three times with 150 μl of 1× Tris wash buffer per well. Then 25 μl detection antibody conjugated with a Sulfo-Tag is added and incubated for 1 hour at room temperature with gentle shaking. Subsequently the antibody solution is removed and the plate is washed 3 times with 150 μl×Tris wash buffer per well and 150 μl Read buffer is added. The plates are analysed on a MSD 2400 Plate Reader (MesoScale Discovery). Data analysis is performed using nonlinear regression for a sigmoidal dose-response with a variable slope.

[2] = tested on: cytokine levels (TNFα, IL-2, IFNγ and IL-4); experiment: Anti-CD3 induced cytokine release in the mouse; assay type: in vivo; conditions: 100 mg/kg p.o. 30 minutes before anti-CD3, blood 90 minutes after anti-CD3, compared to control group 2
Experimental: In this mouse model, T cells and NK cells were activated in situ by the intraperitoneal (i.p.) injection of an anti-CD3 antibody into mice that had been pre-treated for 30 minutes with certain compounds of the invention (100 mg/kg po administration). Blood samples were collected 90 minutes after anti-CD3 injection. Plasma samples were prepared and the cytokine levels (Tumor Necrosis factor alpha (TNFα), Interleukin-2 (IL-2), Interferon-gamma (IFNγ) and Interleukin-4 (IL-4)) were measured using a Cytometric Bead Array method.
A single dose of test compound was administered p.o. 30 minutes before anti-CD3 injection. 90 minutes after anti-CD3 injection blood samples were collected for cytokine analysis (approximately 400 μl whole blood anti-coagulated with Na-heparin) and stored frozen until use.
The cytokine measurement was done using the mouse Cytometric Bead Array (CBA) Th1/Th2 kit (BD Biosciences, San Diego, Calif., USA; catalogue number 551287) according to the manufacturer's instruction with the following modifications: all reagents were downscaled by a factor of 2 and the mixture of plasma, beads and detection reagents was done in 96-U-bottom plates. Standards and samples were acquired on a FACSCalibur® instrument (Becton Dickinson) using an HTS plate loader. Data were analysed with the CBA Software provided by Becton Dickinson which draws standard curves and converts mean fluorescence values into concentration values (pg/ml).
Animals: male C57BL/6J mice, 9 weeks old (Janvier, Le Genest St Isle, France).
Test compounds were dosed orally (p.o.) at 100 mg/kg (vehicle: 0.5% CMC, application volume 10 ml/kg).
Anti-CD3 antibody (BD Bioscience, catalogue number 553057): 200 μl of a 10 μg/ml solution in PBS were applied i.p. (2 μg per mouse).

Compound | IC50 [1] [nM] | further results
CCNC(=O)Nc1ccc(-c2nc3c(c(N4CCOC[C@@H]4C)n2)CCN(C)C3)c(F)c1 [Example 110, (S)-1-ethyl-3-(3-fluoro-4-(7-methyl-4-(3-methylmorpholino)-5,6,7,8-tetrahydropyrido[3,4-d]pyrimidin-2-yl)phenyl)urea] | 118 | –
CC(C)C(=O)N1CCc2c(nc(-c3ccc(NC(=O)NC4CC4)cc3)nc2N2CCOC[C@@H]2C)C1 [Example 61, (S)-1-cyclopropyl-3-(4-(7-isobutyryl-4-(3-methylmorpholino)-5,6,7,8-tetrahydropyrido[3,4-d]pyrimidin-2-yl)phenyl)urea] | 20 | –
CCOC(=O)N1CCc2c(nc(-c3ccc(NC(=O)NC4CC4)cc3)nc2N2CCOC[C@@H]2C)C1 [Example 78, (S)-ethyl 2-(4-(3-cyclopropylureido)phenyl)-4-(3-methylmorpholino)-5,6-dihydropyrido[3,4-d]pyrimidine-7(8H)-carboxylate] | 21 | –
CCNC(=O)Nc1ccc(-c2nc3c(c(N4CCOC[C@@H]4C)n2)CCN(C(=O)Cc2cccnc2)C3)cc1 [Example 91, (S)-1-ethyl-3-(4-(4-(3-methylmorpholino)-7-(2-(pyridin-3-yl)acetyl)-5,6,7,8-tetrahydropyrido[3,4-d]pyrimidin-2-yl)phenyl)urea] | 87 | –
CCNC(=O)Nc1ccc(-c2nc3c(c(N4CCOC[C@@H]4C)n2)CCN(C(=O)NCC)C3)cc1 [Example 87, (S)—N-ethyl-2-(4-(3-ethylureido)phenyl)-4-(3-methylmorpholino)-5,6-dihydropyrido[3,4-d]pyrimidine-7(8H)-carboxamide] | 91 | –
C[C@H]1COCCN1c1nc(-c2ccc(NC(=O)NC3CC3)cc2)nc2c1CCN(C(=O)C(C)(C)C)C2 [Example 64, (S)-1-cyclopropyl-3-(4-(4-(3-methylmorpholino)-7-pivaloyl-5,6,7,8-tetrahydropyrido[3,4-d]pyrimidin-2-yl)phenyl)urea] | 17 | –
CCNC(=O)Nc1ccc(-c2nc3c(c(N4CCOC[C@@H]4C)n2)CCN(C(=O)C(C)(C)C)C3)cc1 [Example 58, (S)-1-ethyl-3-(4-(4-(3-methylmorpholino)-7-pivaloyl-5,6,7,8-tetrahydropyrido[3,4-d]pyrimidin-2-yl)phenyl)urea] | 17 | –
CCNC(=O)Nc1ccc(-c2nc3c(c(N4CCOC[C@@H]4C)n2)CN(C(=O)OCC)C3)cc1 [Example 90, (S)-ethyl 2-(4-(3-ethylureido)phenyl)-4-(3-methylmorpholino)-5H-pyrrolo[3,4-d]pyrimidine-6(7H)-carboxylate] | 37 | –
CCNC(=O)Nc1ccc(-c2nc3c(c(N4CCOC[C@@H]4C)n2)CN(C(=O)OCC)C3)cc1F [Example 103, (S)-ethyl-2-(4-(3-ethylureido)-3-fluorophenyl)-4-(3-methylmorpholino)-5H-pyrrolo[3,4-d]pyrimidine-6(7H)-carboxylate] | 88 | –
CCNC(=O)Nc1ccc(-c2nc3c(c(N4CCOC[C@@H]4C)n2)CN(CC(C)C)C3)cc1 [Example 66, (S)-1-ethyl-3-(4-(6-isobutyl-4-(3-methylmorpholino)-6,7-dihydro-5H-pyrrolo[3,4-d]pyrimidin-2-yl)phenyl)urea] | 54 | –
CCNC(=O)Nc1ccc(-c2nc3c(c(N4CCOC[C@@H]4C)n2)CCN(C(=O)OCC)C3)cc1 [Example 77, (S)-ethyl 2-(4-(3-ethylureido)phenyl)-4-(3-methylmorpholino)-5,6-dihydropyrido[3,4-d]pyrimidine-7(8H)-carboxylate] | 28 | –
CCNC(=O)N1CCc2c(nc(-c3ccc(NC(=O)NC4CC4)cc3)nc2N2CCOC[C@@H]2C)C1 [Example 88, (S)-2-(4-(3-cyclopropylureido)phenyl)-N-ethyl-4-(3-methylmorpholino)-5,6-dihydropyrido[3,4-d]pyrimidine-7(8H)-carboxamide] | 57 | –
CCNC(=O)Nc1ccc(-c2nc3c(c(N4CCOC[C@@H]4C)n2)CN(C)C3)cc1F [Example 85, (S)-1-ethyl-3-(2-fluoro-4-(6-methyl-4-(3-methylmorpholino)-6,7-dihydro-5H-pyrrolo[3,4-d]pyrimidin-2-yl)phenyl)urea] | 531 | –
C[C@H]1COCCN1c1nc(-c2ccc(NC(=O)Nc3cccc(O)n3)cc2)nc2c1CN(C)C2 [Example 80, (S)-1-(6-hydroxypyridin-2-yl)-3-(4-(6-methyl-4-(3-methylmorpholino)-6,7-dihydro-5H-pyrrolo[3,4-d]pyrimidin-2-yl)phenyl)urea] | 61 | –
COC(=O)N1CCc2c(nc(-c3ccc(NC(=O)NC4CC4)cc3)nc2N2CCOC[C@@H]2C)C1 [Example 83, (S)-methyl 2-(4-(3-cyclopropylureido)phenyl)-4-(3-methylmorpholino)-5,6-dihydropyrido[3,4-d]pyrimidine-7(8H)-carboxylate] | 70 | –
CCOC(=O)N1Cc2nc(-c3ccc(NC(=O)NC4CC4)cc3F)nc(N3CCOC[C@@H]3C)c2C1 [Example 131, (S)-ethyl 2-(4-(3-cyclopropylureido)-2-fluorophenyl)-4-(3-methylmorpholino)-5H-pyrrolo[3,4-d]pyrimidine-6(7H)-carboxylate] | 49 | IFNγ plasma levels [2]: reduction; IL-2 plasma levels [2]: reduction; IL-4 plasma levels [2]: reduction; TNFα plasma levels [2]: reduction
C[C@H]1COCCN1c1nc(-c2ccc(NC(=O)NC3CC3)cc2)nc2c1CCN(C(=O)C1CC1)C2 [Example 60, (S)-1-(4-(7-(cyclopropanecarbonyl)-4-(3-methylmorpholino)-5,6,7,8-tetrahydropyrido[3,4-d]pyrimidin-2-yl)phenyl)-3-cyclopropylurea] | 21 | –
CCNC(=O)Nc1ccc(-c2nc3c(c(N4CCOC[C@@H]4C)n2)CCN(C(=O)OC)C3)cc1 [Example 81, (S)-methyl 2-(4-(3-ethylureido)phenyl)-4-(3-methylmorpholino)-5,6-dihydropyrido[3,4-d]pyrimidine-7(8H)-carboxylate] | 22 | –
COC(=O)N1Cc2nc(-c3ccc(NC(=O)NC4CC4)cc3)nc(N3CCOC[C@@H]3C)c2C1 [Example 86, (S)-methyl 2-(4-(3-cyclopropylureido)phenyl)-4-(3-methylmorpholino)-5H-pyrrolo[3,4-d]pyrimidine-6(7H)-carboxylate] | 43 | –
CCNC(=O)Nc1ccc(-c2nc3c(c(N4CCOC[C@@H]4C)n2)CN(C(=O)OCC)C3)c(F)c1 [Example 113, (S)-ethyl-2-(4-(3-ethylureido)-2-fluorophenyl)-4-(3-methylmorpholino)-5H-pyrrolo[3,4-d]pyrimidine-6(7H)-carboxylate] | 53 | –
CCNC(=O)Nc1ccc(-c2nc3c(c(N4CCOC[C@@H]4C)n2)CN(C(=O)OC)C3)cc1 [Example 89, (S)-methyl 2-(4-(3-ethylureido)phenyl)-4-(3-methylmorpholino)-5H-pyrrolo[3,4-d]pyrimidine-6(7H)-carboxylate] | 42 | –
